According to patent US11352396B2, “Antimicrobial peptides and methods of using same” (Zoetis Services LLC, priority 2017, dated 2022):

Assays:
[1] = system: S. aureus ATCC 29213; assay type: cell-based; design: key to SA 29213: MIC in μM (lowest conc. with no visible growth); settings: S. aureus 29213, Table 6
Method in brief: (§1)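 Broth microdilution followed CLSI VET01-S2, with peptides serially diluted to in-assay concentrations of 50 μM to 0.05 μM. A 0.5 McFarland inoculum diluted 1:250 in Mueller-Hinton Broth was incubated with peptide for 18-20 hours. MIC was read visually as the first well without visible growth.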

[2] = system: E. coli ATCC 25922; assay type: cell-based; settings: E. coli 25922, Table 6
Method in brief: as §1

[3] = system: MSSP (Methicillin-Susceptible Staphylococcus pseudintermedius); experiment: MIC against selected strains of MSSP; assay type: cell-based; design: MIC MSSP 49051 / MIC MSSP 81923 / MIC MSSP 84250 / Effect on MSSP 86000 / Effect on MSSP 72036 / Effect on MSSP 78032: unit not given beside the values; Effect on MSSP 71990 / Effect on MSSP 86001 / Effect on MSSP 72191 / Effect on MSSP 76986 / Effect on MSSP 77378 / Effect on MSSP 81923 / Effect on MSSP 84250 / Effect on MSSP 84658: unit: µM; settings: for SP 49051: S. pseudintermedius 49051, Table 6; for Effect on MSSP 71990: strain 71990, Table 5; for Effect on MSSP 72036: strain 72036, Table 5; for Effect on MSSP 72191: strain 72191, Table 5; for Effect on MSSP 76986: strain 76986, Table 5; for Effect on MSSP 77378: strain 77378, Table 5; for Effect on MSSP 78032: strain 78032, Table 5; for Effect on MSSP 81923: strain 81923, Table 5; for Effect on MSSP 84250: strain 84250, Table 5; for Effect on MSSP 84658: strain 84658, Table 5; for Effect on MSSP 86000: strain 86000, Table 5; for Effect on MSSP 86001: strain 86001, Table 5
Method in brief: (§2)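 Broth microdilution MIC following CLSI VET01-S2: peptides titrated 50 μM to 0.05 μM in assay, inoculum a 0.5 McFarland suspension diluted 1:250 in Mueller-Hinton broth. Incubated overnight (18–20 h); MIC taken visually as lowest concentration without visible growth.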

[4] = system: MRSP (Methicillin-Resistant Staphylococcus pseudintermedius); experiment: MIC against selected strains of MRSP; assay type: cell-based; design: key to MIC MRSP 72192 / MIC MRSP 76923 / MR 71994 / Mr 88493 / MR 72035 / MR 72192 / MR 76923 / MR 79882 / MR 80279 / MR 81926 / MR 86002 / MR 87665: MIC in μM (visual, first well with no growth); settings: for MR 71994: MRSP strain 71994, Table 6; for MR 72035: MRSP strain 72035, Table 6; for MR 72192: MRSP strain 72192, Table 6; for MR 76923: MRSP strain 76923, Table 6; for MR 79882: MRSP strain 79882, Table 6; for MR 80279: MRSP strain 80279, Table 6; for MR 81926: MRSP strain 81926, Table 6; for MR 86002: MRSP strain 86002, Table 6; for MR 87665: MRSP strain 87665, Table 6; for Mr 88493: MRSP strain 88493, Table 6
Method in brief: as §2

[5] = system: Canine-derived epithelial keratinocyte (CPEK) cells; assay type: cell-based
Method in brief: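 CPEK cells were dosed with peptides at 50 μM to 0.05 μM and incubated overnight at 37 °C, 5% CO2. Viability was read by CellTiter-Glo luminescence. Percent effect was normalised to 0.1% Triton X-100 (high) and phosphate buffer alone (zero).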

[6] = system: cRBC; assay type: cell-based, canine
Method in brief: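 Washed, plasma-free red cells were incubated with peptide titrated from 50 µM to 0.05 µM for 1 h at 37 °C. Hemolysis was read as OD at 405 nm, scaled between phosphate buffer alone (0%) and 1% Triton X-100 (100%).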

| Substance | SA 29213 [1] | EC 25922 [2] [µM] | SP 49051 [3] | Effect on MSSP 71990 [3] | Effect on MSSP 72036 [3] | Effect on MSSP 72191 [3] | Effect on MSSP 76986 [3] | Effect on MSSP 77378 [3] | Effect on MSSP 78032 [3] | Effect on MSSP 81923 [3] | Effect on MSSP 84250 [3] | Effect on MSSP 84658 [3] | Effect on MSSP 86000 [3] | Effect on MSSP 86001 [3] | MR 71994 [4] | MR 72035 [4] | MR 72192 [4] | MR 76923 [4] | MR 79882 [4] | MR 80279 [4] | also measured |
| --- | --- | --- | --- | --- | --- | --- | --- | --- | --- | --- | --- | --- | --- | --- | --- | --- | --- | --- | --- | --- | --- |
| 102 (KWCFRACYRGICYRRCRD; Artificial Antimicrobial peptide) [compound 102] | 6.2 | 1.6 | 1.6 | 1.6 | 1.6 | 3.1 | 1.6 | 0.8 | 1.6 | 1.6 | 1.6 | 1.6 | 1.6 | 1.6 | 3.1 | 3.1 | 1.6 | 1.6 | 1.6 | 1.6 | MR 81926 [4]: 1.6; MR 86002 [4]: 1.6; MR 87665 [4]: 1.6; Mr 88493 [4]: 3.1; CPEK (50 μM) [5]: −2.1; cRBC (50 μM) [6]: 23.9 |
| 98 (KWCVRVCYRGICYRRCRD; Artificial Antimicrobial peptide) [compound 98] | 3.1 | 1.6 | 1.6 | 1.6 | 1.6 | 1.6 | 1.6 | 1.6 | 1.6 | 1.6 | 1.6 | 1.6 | 1.6 | 1.6 | 1.6 | 3.1 | 1.6 | 1.6 | 0.8 | 1.6 | MR 81926 [4]: 1.6; MR 86002 [4]: 1.6; MR 87665 [4]: 1.6; Mr 88493 [4]: 1.6; CPEK (50 μM) [5]: 9.3; cRBC (50 μM) [6]: 35.0 |
| 31 (PWCFRVCYRGICYRRCRD; Artificial Antimicrobial peptide) [compound 31] | 3.1 | 1.6 | 1.6 | 1.6 | 1.6 | 1.6 | 1.6 | 1.6 | 1.6 | 1.6 | 1.6 | 1.6 | 1.6 | 1.6 | 1.6 | 1.6 | 1.6 | 1.6 | 1.6 | 1.6 | MR 81926 [4]: 1.6; MR 86002 [4]: 1.6; MR 87665 [4]: 1.6; Mr 88493 [4]: 1.6; CPEK (50 μM) [5]: 11.0; cRBC (50 μM) [6]: 43.5 |
| 104 (KWCFRVCYFGICYRRCRD; Artificial Antimicrobial peptide) [compound 104] | 6.2 | 3.1 | 1.6 | 1.6 | 3.1 | 1.6 | 1.6 | 1.6 | 1.6 | 3.1 | 3.1 | 1.6 | 3.1 | 1.6 | 3.1 | 1.6 | 1.6 | 1.6 | 1.6 | 1.6 | MR 81926 [4]: 1.6; MR 86002 [4]: 1.6; MR 87665 [4]: 3.1; Mr 88493 [4]: 3.1; CPEK (50 μM) [5]: 6.0; cRBC (50 μM) [6]: 100.6 |
| 97 (KRCFRVCYRGICYRRCRD; Artificial Antimicrobial peptide) [compound 97] | 6.2 | 3.1 | 3.1 | 3.1 | 3.1 | 3.1 | 1.6 | 1.6 | 3.1 | 3.1 | 3.1 | 3.1 | 1.6 | 1.6 | 1.6 | 3.1 | 3.1 | 1.6 | 1.6 | 3.1 | MR 81926 [4]: 1.6; MR 86002 [4]: 3.1; MR 87665 [4]: 3.1; Mr 88493 [4]: 3.1; CPEK (50 μM) [5]: 12.9; cRBC (50 μM) [6]: 31.2 |
| 108 (KWCFRVCYGGICYRRCRD; Artificial Antimicrobial peptide) [compound 108] | 12.5 | 0.8 | 3.1 | 3.1 | 3.1 | 3.1 | 3.1 | 3.1 | 3.1 | 3.1 | 3.1 | 3.1 | 3.1 | 3.1 | 3.1 | 3.1 | 3.1 | 3.1 | 3.1 | 3.1 | MR 81926 [4]: 3.1; MR 86002 [4]: 3.1; MR 87665 [4]: 3.1; Mr 88493 [4]: 3.1; CPEK (50 μM) [5]: 9.6; cRBC (50 μM) [6]: 27.7 |
| 100 (KWCFWVCYRGICYRRCRD; Artificial Antimicrobial peptide) [compound 100] | 6.2 | 0.8 | 1.6 | 1.6 | 1.6 | 3.1 | 1.6 | 3.1 | 1.6 | 1.6 | 1.6 | 1.6 | 1.6 | 1.6 | 1.6 | 3.1 | 1.6 | 1.6 | 1.6 | 1.6 | MR 81926 [4]: 1.6; MR 86002 [4]: 1.6; MR 87665 [4]: 1.6; Mr 88493 [4]: 3.1; CPEK (50 μM) [5]: 29.5; cRBC (50 μM) [6]: 100.0 |
| 109 (KWCFRVCYRRICYRRCRD; Artificial Antimicrobial peptide) [compound 109] | 3.1 | 1.6 | 1.6 | 1.6 | 1.6 | 1.6 | 1.6 | 1.6 | 1.6 | 1.6 | 1.6 | 1.6 | 1.6 | 1.6 | 1.6 | 1.6 | 1.6 | 1.6 | 0.8 | 1.6 | MR 81926 [4]: 1.6; MR 86002 [4]: 1.6; MR 87665 [4]: 1.6; Mr 88493 [4]: 1.6; CPEK (50 μM) [5]: 19.2; cRBC (50 μM) [6]: 99.8 |
